Entries after “also recorded” stand apart in the source; their conditions may differ. Where a name gives a salt, the structure may show the parent alone. Read-outs that look alike come from different tables or passages of the source.
Assays:
thalamic neurons [1] = experiment: HFS-induced membrane depolarization of thalamic neurons; assay type: cell-based, mouse; conditions: thalamic slices during HFS
[2] = target: Nucleoside Triphosphate Diphosphohydrolases; conditions: Gendron et al.; cited from earlier work
adenosine kinase = adenosine kinase (Homo sapiens, UniProt P55263); conditions: cited from earlier work
adenosine transport = conditions: cited from earlier work; for Ki: adenosine transport inhibitors
[3] = target: S-adenosylhomocysteine hydrolase (Homo sapiens, UniProt P23526); conditions: cited from earlier work
Rat Parotid Ecto-ATPase = conditions: Dowd et al.; cited from earlier work
Ecto-ATPase [4] = conditions: Yegutkin et al., rat liver plasma membranes; cited from earlier work
Ecto-ATPase [5] = conditions: Chen et al., endothelial cells; cited from earlier work
thalamic neurons [6] = experiment: HFS-induced depression of eEPSPs in thalamic slices, pharmacology; assay type: cell-based, mouse; conditions: 50 μM; HFS 250 μA, 100 μs, 5 sec, 20° C.
harmaline-induced tremor = experiment: Harmaline-induced tremor, intrathalamic delivery by bilateral microdialysis probes; assay type: in vivo, mice; conditions: for tremor activity: thalamus; for tremor following washout: after cessation of microdialysis of agonist; for time course of depression of tremor: microdialysis perfusion
Method: Harmaline was administed i.p. 20 min prior to DBS (20-30 mg/kg) (Wilms et al., “Animal Models of Tremor,” Mov Disord 14:557-71 (1999); Martin et al., “Harmaline-Induced Tremor as a Potential Preclinical Screening Method for Essential Tremor Medications,” Mov Disord 20:298-305 (2005), which are hereby incorporated by reference in their entirety). 6-OHDA (3 μg/μl in saline containing 0.1% ascorbic acid) was injected in the right median forebrain bundle (AP: −1.2 mm; ML: ±1.1 mm; DV: −5.0 mm in a volume of 2 μl) (Jolicoeur et al., “Hypokinesia, Rigidity, and Tremor Induced by Hypothalamic 6-OHDA Lesions in The Rat,” Brain Res Bull 26:317-20 (1991), which are hereby incorporated by reference in their entirety) in mice anaesthetized with urethane (1.6 g/kg). Only animals that developed body tremor were included in the study. Tacrine was administered in a dose of 2.5 mg/kg i.p. and induced a robust jaw response with the peak frequency within the 3-5 Hz range (Cousins et al., “Tremulous Jaw Movements Induced by The Acetylcholinesterase Inhibitor Tacrine: Effects of Antiparkinsonian Drugs,” Eur J Pharmacol 322:137-45 (1997), which is hereby incorporated by reference in its entirety). […] For electrode and microdialysis implantation, mice were anaesthetized with a mixture of Ketamine (60 mg/kg) and Xylazine (10 mg/kg) and placed into a stereotactic frame. The skull was exposed and concentric bipolar microelectrodes (SNE-100, KOPF) or microdialysis probes (Bioanalytical Systems, Inc.) were implanted into the ventrolateral thalamic nucleus at the following coordinates: AP: −1.4 mm; ML: ±0.9 mm; DV: −3.7 mm. The electrodes or microdialysis probes were attached to the skull with dental cement. Following 24 hrs recovery, stimulation was delivered through a constant isolated current source (An ISO-Flex stimulus isolator with a Master-8-vp stimulator; AMPI) and consisted of monophasic 60 μs square pulses of varying amplitude (15, 25, 50 μA) and frequency (25, 75, 125, 200 Hz). The electrodes implanted in tremor patients has 4 contacts with a total surface area of 0.24 cm^2, an impedance ˜500 Ohm, and an upper limit of 30 μC/cm^2 in charge density (Kuncel et al., “Selection of Stimulus Parameters for Deep Brain Stimulation,” Clin Neurophysiol 115:2431-41 (2004), which is hereby incorporated by reference in its entirety). In mice, electrodes with a smaller tip (diameter 0.0055-0.250 mm, surface area 0.001-0.05 mm^2) were used and the current amplitude was adjusted to obtain charge density within the clinical range. Microdialysis probes were perfused 24 hrs after implantation using a microinjection pump (Harvard Apparatus Inc. USA) at a rate of 2 μl/min. The perfusion buffer contained (in mM): 138 NaCl, 1.5 K2HPO4, 2 CaCl2, 2 MgCl2, 10 HEPES, pH 7.3. […]. Tremor was recorded by either EMG electrodes placed in the occipital muscles or by the Convuls-1 pressure transducer (Columbus Instruments) in awake freely moving animals. […]. The mice were perfusion-fixed and sectioned on a vibratome (TPI) for confirmation of electrode or microdialysis probe placements.
[…]. Microdialysis probes were inserted bilaterally in thalamus 24-48 hrs prior to administration of harmaline. […].

thalamic neurons [7] = experiment: Drug effect on evoked EPSPs (eEPSP) in thalamic slices, current clamp; assay type: cell-based, mouse
Method: Thalamic slices (300 μm) from 14-18 day old mouse pups (FVB/NJ mice; Jackson Laboratory) were cut on a Vibratome (TPI) in an ice-cold cutting solution containing (in mM): 2.5 KCl, 1.25 NaH2PO4, 10 MgSO4, 5 CaCl2, 10 glucose, 26 NaHCO3, 230 sucrose and gassed with 5% CO2 and 95% O2. Slices were incubated for a minimum of 1 hr in a slice solution containing (in mM): 126 NaCl, 2.5 KCl, 1.25 NaH2PO4, 2 MgCl2, 2 CaCl2, 10 glucose, and 26 NaHCO3, pH 7.4, and gassed with 5% CO2 and 95% O2 at room temperature. The slices were transferred to a recording chamber (1.5 ml) perfused with aCSF at room temperature or 32° C. Whole-cell current clamp recordings were obtained using a 700B Multiclamp amplifier (Axon Instruments) (Jiang et al., “A Kainate Receptor Increases The Efficacy of Gabaergic Synapses,” Neuron 30:503-13 (2001); Tian et al., “An Astrocytic Basis of Epilepsy,” Nat Med 11:973-81 (2005), which are hereby incorporated by reference in their entirety). Concentric bipolar stimulating electrodes (FHC) were placed ˜100-400 μm ventromedial to the patched VL thalamic neuron. Stimulation was delivered through a constant isolated current source (ISO-Flex stimulus isolator with a Master-8-vp stimulator; AMPI) and consisted of monophasic 60 μs square pulses of varying amplitude (15, 25, 50 μA) and frequency (25, 75, 125, 200 Hz). Based upon maximum current amplitude and the surface area of the electrode, it is estimated that the maximum charge density was in the range of ˜1-10 μC/cm^2. The artifacts of the HFS signal were blanked and staggered to allow continuous observation of the 2.5 Hz signal (Anderson et al., “Selective Attenuation of Afferent Synaptic Transmission as a Mechanism of Thalamic Deep Brain Stimulation-Induced Tremor Arrest,” J Neurosci 26:841-50 (2006), which is hereby incorporated by reference in its entirety). Adenosine measurements were detected using needle shaped electrode (Pt/Ir wire) biosensors (Sarissa Biomedical). Calibration was carried out at the beginning and end of each slice experiment in the bath above the slice. Measurements were obtained ˜100 μm from the stimulation electrode in the thalamic slice. […].
To further analyze the role of adenosine in HFS, the effect of perfusion with an aCSF containing 1-100 μM adenosine in thalamic slices was studied. […]. […] The AMPA receptor antagonist, CNQX could not be tested due to its direct effect on EPSCs (Wang et al., “Astrocytic Ca(2+) Signaling Evoked by Sensory Stimulation in Vivo,” Nat Neurosci 9:816-23 (2006), which is hereby incorporated by reference in its entirety) (FIG. 3G). […]. […]

Chain of S-adenosylhomocysteine hydrolase (P23526 whole entry): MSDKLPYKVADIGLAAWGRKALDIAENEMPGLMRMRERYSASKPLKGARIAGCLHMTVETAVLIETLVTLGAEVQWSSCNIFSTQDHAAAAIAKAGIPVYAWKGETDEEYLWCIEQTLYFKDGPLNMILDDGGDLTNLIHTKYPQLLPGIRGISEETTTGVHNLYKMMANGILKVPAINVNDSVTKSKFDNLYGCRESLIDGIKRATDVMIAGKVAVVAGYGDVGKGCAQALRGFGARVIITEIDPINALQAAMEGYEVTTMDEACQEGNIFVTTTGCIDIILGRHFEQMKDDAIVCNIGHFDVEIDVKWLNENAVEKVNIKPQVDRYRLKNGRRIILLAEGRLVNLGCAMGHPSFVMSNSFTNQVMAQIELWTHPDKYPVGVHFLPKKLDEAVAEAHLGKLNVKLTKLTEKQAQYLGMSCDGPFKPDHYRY
Chain of adenosine kinase (P55263 whole entry, species assumed): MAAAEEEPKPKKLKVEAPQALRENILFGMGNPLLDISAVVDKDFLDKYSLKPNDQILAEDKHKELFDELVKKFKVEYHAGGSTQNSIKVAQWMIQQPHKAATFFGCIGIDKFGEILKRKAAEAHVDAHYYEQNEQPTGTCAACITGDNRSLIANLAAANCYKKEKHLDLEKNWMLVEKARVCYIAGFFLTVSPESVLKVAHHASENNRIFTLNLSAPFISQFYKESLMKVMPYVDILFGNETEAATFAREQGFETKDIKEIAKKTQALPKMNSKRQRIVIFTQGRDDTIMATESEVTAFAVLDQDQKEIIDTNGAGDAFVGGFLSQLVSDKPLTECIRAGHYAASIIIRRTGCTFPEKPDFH

Question: With `N#Cc1cc2[nH]c(=O)c(=O)[nH]c2cc1[N+](=O)[O-]` [CNQX] as the compound, how does the “HFS-induced change of neuronal membrane potential (depolarization / hyperpolarization)” value (thalamic neurons [1]) read?
Answer: 15.91±4.53 mV

Question: For 8-CH2BuS-ATP, which Ki [2] is on record?
Answer: 45 µM

Question: With `Nc1ncnc2c1c(Br)cn2C1CC(N)C(O)C1O` (stereo not drawn) [A-286501, N7-((1′R,2′S,3′R,4′S)-2′,3′-dihydroxy-4′-amino-cyclopentyl)-4-amino-5-bromo-pyrrolo[2,3-a]pyrimidine] as the compound, how does the IC50 (adenosine kinase) read?
Answer: 470 pM

Question: Which Ki (adenosine transport) does the source give for `CCOc1cc2nc(N3CCOCC3)nc(N3CCC(n4c(=O)c5cc(C)ccc5n(C)c4=O)CC3)c2cc1OCC` [KF 24345, 3-[1-(6,7-diethoxy-2-morpholinoquinazolin-4-yl)piperidin-4-yl]-1,6-dimethyl-2,4(1H,3H)-quinazolinedione hydrochloride] here?
Answer: 0.0001 to 0.001 µM

Question: Which Ki ([3]; read-out: Ki) does the source give for `COC(=O)C(O)CCn1cnc2c(N)ncnc21` (centres unmarked) [DZ2002, methyl 4-(adenine-9-yl)-2-hydroxybutanoate] here?
Answer: 0.0179 µM

Question: Which IC50 (adenosine kinase; McGaraughty et al.) does the source give for `Nc1ncnc2c1c(I)cn2[C@@H]1C[C@H](N)[C@@H](O)[C@H]1O` [A-134974] here?
Answer: 60 pM

Question: With 3-deaza-DEA methylester [C3-OMeDEA] as the compound, how does the Ki ([3]; read-out: Ki) read?
Answer: 1.5 µM

Question: For reactive blue, which IC50 (Rat Parotid Ecto-ATPase) is on record?
Answer: 28 µM

Question: And the “pIC 50” value (Ecto-ATPase [4])?
Answer: 4.3

Question: Which Ki ([3]; read-out: Ki) does the source give for `Nc1nccc2c1ncn2C[C@@H](O)[C@@H](O)C(=O)O` [C3-DEA, 3-deaza-DEA] here?
Answer: 1.5 µM

Question: With `Nc1ncnc2c1ncn2[C@@H]1O[C@H](COP(=O)(O)OP(=O)(O)NP(=O)(O)O)[C@@H](O)[C@H]1O` [AMP-PNP] as the compound, how does the “pIC 50” value (Ecto-ATPase [5]) read?
Answer: 4.0

Question: With `N[C@@H](CCCP(=O)(O)O)C(=O)O` [APV] as the compound, how does the “HFS-induced change of neuronal membrane potential (depolarization / hyperpolarization)” value (thalamic neurons [1]) read?
Answer: 18.15±6.69 mV

Question: What about the “effect on HFS-induced depression of eEPSPs (FIG. 3G)” value (thalamic neurons [6]) of the same compound?
Answer: no significant effect

Question: With `Cc1cccc(C)c1NC(=O)CN1CCN(CCCC(c2ccc(F)cc2)c2ccc(F)cc2)CC1` [lidoflazine] as the compound, how does the Ki (adenosine transport; unit inferred) read?
Answer: 0.1 µM

Question: With `Cc1ncc2n1-c1ccc(Cl)cc1C(c1ccccc1F)=NC2` [midazolam] as the compound, how does the Ki (adenosine transport; unit inferred) read?
Answer: 1 µM

Question: Which tremor activity (harmaline-induced tremor; CCPA 10-100 μM in microdialysis perfusate) does the source give for `OC[C@H]1O[C@@H](n2cnc3c(NC4CCCC4)nc(Cl)nc32)[C@H](O)[C@@H]1O` [CCPA, 2-chloro-N6-cyclopentyladenosine] here?
Answer: attenuated; also recorded: reduced tremor activity with a potency comparable to DBS

Question: What about the tremor following washout (harmaline-induced tremor) of the same compound?
Answer: rebound effect was often observed

Question: And the “time course of depression of tremor” value (harmaline-induced tremor)?
Answer: developed slowly over minutes

Question: What about the “depression of eEPSPs” value (thalamic neurons [7]; 1.0 μM) of the same compound?
Answer: 75.59±4.98%

Question: For `Nc1ncnc2c1ncn2C[C@@H](O)[C@@H](O)C(=O)O` [DEA, eritadenine[2(R),3(R)-dihydroxy-4-(9-zdenyl)-butyric acid]], which Ki [3] is on record?
Answer: 0.03 µM

Question: Which IC50 (Rat Parotid Ecto-ATPase) does the source give for `CCOc1ccc(Nc2ccc(C(=C3C=CC(=[N+](CC)Cc4cccc(S(=O)(=O)[O-])c4)C=C3)c3ccc(N(CC)Cc4cccc(S(=O)(=O)O)c4)cc3)cc2)cc1` [Coomassie brilliant blue R] here?
Answer: 114 µM

Question: Which Ki (adenosine transport) does the source give for `CCCn1cnc2c1c(=O)n(CCCCC(C)=O)c(=O)n2C` [Propentofylline] here?
Answer: 10 to 100 µM

Question: With `COc1cc(C(=O)OCCCN2CCCN(CCCOC(=O)c3cc(OC)c(OC)c(OC)c3)CC2)cc(OC)c1OC` [dilazep] as the compound, how does the Ki (adenosine transport) read?
Answer: 0.0001 to 0.001 µM

Question: Which IC50 (Rat Parotid Ecto-ATPase) does the source give for `O=S(=O)(O)c1cc(N=C=S)ccc1C=Cc1ccc(N=C=S)cc1S(=O)(=O)O` [DIDS, 4,4′diisothiocyanatostilbene-2,2′disulphonec acid] here?
Answer: 150 µM

Question: Which IC50 (adenosine transport; adenosine uptake (Liu et al.)) does the source give for `O=C1CCc2cc(OCCCCc3nnnn3C3CCCCC3)ccc2N1` [cilostazol] here?
Answer: 10 µM

Question: For `NC(=O)C1CN(CC(=O)Nc2c(Cl)cccc2Cl)CCN1CCCC(c1ccc(F)cc1)c1ccc(F)cc1` (centres unmarked) [mioflazine], which Ki (adenosine transport; unit inferred) is on record?
Answer: 0.01 µM

Question: With `Nc1ncnc2c1ncn2[C@@H]1O[C@H](CO[P@](=O)(O)O[P@](=O)(O)O[P@@](=O)(O)S)[C@@H](O)[C@H]1O` [ATPyS] as the compound, how does the “pIC 50” value (Ecto-ATPase [5]) read?
Answer: 5.2

Question: Which Ki [3] does the source give for `Nc1ncnc2c1ncn2[C@@H]1O/C(=C\F)[C@@H](O)[C@H]1O` [ZDDFA, (Z)-4′,5′-didehydro-5′-deoxy-5′-fluoroadenosine] here?
Answer: 0.0399 µM

Question: Which “pIC 50” value (Ecto-ATPase [5]) does the source give for `Nc1ncnc2c1ncn2[C@@H]1O[C@H](COP(=O)(O)CP(=O)(O)OP(=O)(O)O)[C@@H](O)[C@H]1O` [α,β-MeATP] here?
Answer: 4.5

Question: With `CCCCSc1nc2c(N)ncnc2n1[C@@H]1O[C@H](COP(=O)(O)OP(=O)(O)OP(=O)(O)O)[C@@H](O)[C@H]1O` [8-Bus-ATP] as the compound, how does the Ki [2] read?
Answer: 10 µM

Question: Which tremor activity (harmaline-induced tremor; adenosine 1-10 mM in microdialysis perfusate) does the source give for `Nc1ncnc2c1ncn2[C@@H]1O[C@H](CO)[C@@H](O)[C@H]1O` [adenosine] here?
Answer: reduced tremor activity with a potency comparable to DBS

Question: What about the tremor following washout (harmaline-induced tremor) of the same compound?
Answer: rebound effect was often observed

Question: And the “time course of depression of tremor” value (harmaline-induced tremor)?
Answer: developed slowly over minutes

Question: What about the EC50 (thalamic neurons [7]; Mus musculus, Neuron, aCSF containing 1-100 μM adenosine, read-out: ED50 for depression of eEPSP amplitude) of the same compound?
Answer: 3.35 ± 0.75 µM

Question: And the “maximal reduction of eEPSP amplitude” value (thalamic neurons [7]; aCSF containing 1-100 μM adenosine)?
Answer: 76.13±6.47 % of control values
